Assay [1] deals with Metabotropic glutamate receptor 2 (Homo sapiens, UniProt Q14416). Description: Concentration required to inhibit mGluR2 receptor.
The target in assay [2] is Metabotropic glutamate receptor 1 (Homo sapiens, UniProt Q13255). Description: Inhibitory activity against mGluR1 receptor.
Chain of Metabotropic glutamate receptor 1 (Q13255 whole entry): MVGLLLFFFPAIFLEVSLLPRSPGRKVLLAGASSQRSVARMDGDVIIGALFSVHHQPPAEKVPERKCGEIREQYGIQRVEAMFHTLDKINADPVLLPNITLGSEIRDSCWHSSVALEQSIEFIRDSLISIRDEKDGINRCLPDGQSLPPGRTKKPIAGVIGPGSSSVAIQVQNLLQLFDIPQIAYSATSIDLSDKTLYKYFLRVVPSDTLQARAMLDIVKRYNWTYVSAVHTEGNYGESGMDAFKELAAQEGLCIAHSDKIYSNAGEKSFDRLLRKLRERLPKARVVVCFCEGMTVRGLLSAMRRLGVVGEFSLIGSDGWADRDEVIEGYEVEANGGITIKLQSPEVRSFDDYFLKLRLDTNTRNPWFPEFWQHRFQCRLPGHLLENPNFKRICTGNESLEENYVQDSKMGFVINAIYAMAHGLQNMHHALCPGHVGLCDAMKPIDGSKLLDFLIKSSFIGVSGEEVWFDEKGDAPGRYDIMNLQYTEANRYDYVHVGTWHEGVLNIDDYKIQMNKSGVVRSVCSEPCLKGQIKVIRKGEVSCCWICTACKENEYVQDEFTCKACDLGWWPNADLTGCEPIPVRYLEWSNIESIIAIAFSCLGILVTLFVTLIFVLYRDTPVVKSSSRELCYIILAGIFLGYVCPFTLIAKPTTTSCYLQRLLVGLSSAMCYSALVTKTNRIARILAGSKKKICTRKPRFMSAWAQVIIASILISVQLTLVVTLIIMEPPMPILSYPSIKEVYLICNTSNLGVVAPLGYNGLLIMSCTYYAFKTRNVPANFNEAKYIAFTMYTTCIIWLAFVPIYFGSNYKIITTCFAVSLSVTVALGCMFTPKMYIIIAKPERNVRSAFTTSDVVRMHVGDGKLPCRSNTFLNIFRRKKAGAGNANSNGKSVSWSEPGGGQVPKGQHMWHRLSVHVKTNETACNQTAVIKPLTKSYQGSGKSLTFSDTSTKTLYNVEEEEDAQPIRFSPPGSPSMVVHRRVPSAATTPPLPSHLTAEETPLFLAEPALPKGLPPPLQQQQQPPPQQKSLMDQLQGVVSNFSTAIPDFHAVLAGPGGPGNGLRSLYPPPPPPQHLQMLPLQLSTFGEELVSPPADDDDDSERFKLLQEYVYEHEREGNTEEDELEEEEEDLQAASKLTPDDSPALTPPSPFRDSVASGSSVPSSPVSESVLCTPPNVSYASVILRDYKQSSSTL

Chain of Metabotropic glutamate receptor 2 (Q14416 whole entry): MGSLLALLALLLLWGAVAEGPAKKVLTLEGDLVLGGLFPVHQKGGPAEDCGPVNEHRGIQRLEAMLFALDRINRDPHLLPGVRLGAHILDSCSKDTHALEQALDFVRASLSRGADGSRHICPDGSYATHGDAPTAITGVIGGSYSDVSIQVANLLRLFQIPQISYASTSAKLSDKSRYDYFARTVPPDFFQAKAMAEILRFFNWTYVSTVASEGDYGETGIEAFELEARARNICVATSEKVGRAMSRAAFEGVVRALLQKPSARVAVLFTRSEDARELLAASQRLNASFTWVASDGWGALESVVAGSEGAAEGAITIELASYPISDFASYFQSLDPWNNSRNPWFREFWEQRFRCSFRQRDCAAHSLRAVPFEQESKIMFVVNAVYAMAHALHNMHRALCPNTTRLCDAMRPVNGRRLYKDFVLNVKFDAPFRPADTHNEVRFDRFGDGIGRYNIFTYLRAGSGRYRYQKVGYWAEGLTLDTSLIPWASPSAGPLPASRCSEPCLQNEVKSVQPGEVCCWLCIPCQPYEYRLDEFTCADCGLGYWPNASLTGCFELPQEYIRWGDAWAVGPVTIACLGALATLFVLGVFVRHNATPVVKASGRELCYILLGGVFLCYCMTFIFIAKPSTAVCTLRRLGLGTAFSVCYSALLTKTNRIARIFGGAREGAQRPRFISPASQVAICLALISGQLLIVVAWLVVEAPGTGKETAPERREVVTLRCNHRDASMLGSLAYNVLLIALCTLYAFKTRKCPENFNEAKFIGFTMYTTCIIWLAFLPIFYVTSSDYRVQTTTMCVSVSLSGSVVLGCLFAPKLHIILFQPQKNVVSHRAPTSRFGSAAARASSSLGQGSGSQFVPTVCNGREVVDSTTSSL

In general, EC50 refers to the midpoint of the concentration-response curve. Broadly, the IC50 is the concentration that gives 50% inhibition. High values mean a need for much substance, low ones inhibition by little substance. Consider `N[C@H](C(=O)O)C12C3C4C1C1C2C3C41C(=O)O` (some centres not stated), for which a half-maximal effect in assay [1] (EC50) was put at 54.9 µM. Further, in assay [2], the midpoint of inhibition, the IC50, lay at 232 µM.
